Where a SMILES comes first, the peptide text is derived from it. Bridges are numbered along the chain shown (N, C = ends). [ ]: non-standard residue; d: D form. The star is where a group is joined. Phe(4-COOH) = N[C@@H](Cc1ccc(C(=O)O)cc1)C(=O)O; Bip = N[C@@H](Cc1ccc(-c2ccccc2)cc1)C(=O)O; 4Pal = N[C@@H](Cc1ccncc1)C(=O)O; Aad = N[C@@H](CCCC(=O)O)C(=O)O; Cha = N[C@@H](CC1CCCCC1)C(=O)O; Cit = NC(=O)NCCC[C@H](N)C(=O)O; 12Ado = NCCCCCCCCCCCC(=O)O; Carboxymethyl = O=C(O)C*; NMeA = CN[C@@H](C)C(=O)O; Orn = NCCC[C@H](N)C(=O)O; Aun = NCCCCCCCCCCC(=O)O; Dab = NCC[C@H](N)C(=O)O; Dap = NC[C@H](N)C(=O)O; AEEA = NCCOCCOCC(=O)O
Molecular target: T1, PD-1/PD-L1 interaction (PE-labeled human PD-L1-Ig binding to Jurkat cell line over-expressing human PD-1) (Homo sapiens, UniProt Q15116)
T1 construct: expressed in transfected cells; host or cells: Jurkat
T1 sequence (Q15116 25-288): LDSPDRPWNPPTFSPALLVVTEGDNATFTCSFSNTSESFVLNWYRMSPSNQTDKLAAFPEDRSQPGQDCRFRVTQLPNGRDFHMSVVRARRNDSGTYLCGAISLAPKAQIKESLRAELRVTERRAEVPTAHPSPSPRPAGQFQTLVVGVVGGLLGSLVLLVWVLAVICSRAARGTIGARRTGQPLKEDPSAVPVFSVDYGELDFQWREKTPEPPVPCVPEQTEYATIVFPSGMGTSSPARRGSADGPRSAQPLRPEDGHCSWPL
Assay: Jurkat-PD-1 Cell Binding High-Content Screening Assay (CBA)
Settings: Jurkat-hPD-1 cells, PE-labeled PD-L1-Ig 20 nM final; read-out: Jurkat HPD1 PDL1 IC50
Procedure, shortened: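 Binding of 20 nM (final) PE-tagged PD-L1-Ig to compound-pretreated Jurkat-hPD-1 cells was measured by high-content imaging after 1 h. Pretreatment ran 2 h at 37 °C in DMEM with 10% fetal calf serum.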

SMILES	IC50
CC(C)C[C@@H]1NC(=O)[C@H](Cc2c[nH]c3ccccc23)NC(=O)[C@H](CC(=O)O)NC(=O)[C@H](Cc2ccc(C(=O)O)cc2)NC(=O)[C@H](Cc2ccc(OCC(=O)O)cc2)NC(=O)CSC[C@@H](C(=O)N[C@@H](CCCN)C(=O)NCCOCCOCC(=O)NCCCCCCCCCCC(=O)O)NC(=O)[C@H](CCCC(=O)O)NC(=O)[C@H](C(C)C)NC(=O)[C@H](CC2CCCCC2)NC(=O)[C@H](CCN)NC(=O)[C@@H](CC(C)C)NC(=O)[C@H](C)N(C)C(=O)[C@H](C(C)C)NC(=O)[C@H](Cc2ccc(-c3ccccc3)cc2)NC1=O [Example 2153] ({CH2CO}-Y(Carboxymethyl)[Phe(4-COOH)]DWL[Bip]V[NMeA][dL][Dab][Cha]V[Aad]C[Orn][AEEA][Aun]-OH; thioether N-14)	16.7 nM
CC(C)C[C@@H]1NC(=O)[C@H](Cc2c[nH]c3ccccc23)NC(=O)[C@H](CC(=O)O)NC(=O)[C@H](Cc2ccc(C(=O)O)cc2)NC(=O)[C@H](Cc2ccc(OCC(=O)O)cc2)NC(=O)CSC[C@@H](C(=O)NCCOCCOCC(=O)N[C@@H](CCN)C(=O)NCCCCCCCCCCC(=O)O)NC(=O)[C@H](CCCNC(N)=O)NC(=O)[C@H](C(C)C)NC(=O)[C@H](CC2CCCCC2)NC(=O)[C@H](CCN)NC(=O)[C@@H](CC(C)C)NC(=O)[C@H](C)N(C)C(=O)[C@H](C(C)C)NC(=O)[C@H](Cc2ccc(-c3ccccc3)cc2)NC1=O [Example 2156] ({CH2CO}-Y(Carboxymethyl)[Phe(4-COOH)]DWL[Bip]V[NMeA][dL][Dab][Cha]V[Cit]C[AEEA][Dab][Aun]-OH; thioether N-14)	16.5 nM
CC(C)C[C@@H]1NC(=O)[C@H](Cc2c[nH]c3ccccc23)NC(=O)[C@H](CC(=O)O)NC(=O)[C@H](Cc2ccc(OCC(=O)O)cc2)NC(=O)[C@H](Cc2ccc(OCC(=O)O)cc2)NC(=O)CSC[C@@H](C(=O)N[C@@H](CCCCN)C(=O)NCCCCCCCCCCC(=O)O)NC(=O)[C@H](CCCN)NC(=O)[C@H](C(C)C)NC(=O)[C@H](CC2CCCCC2)NC(=O)[C@H](CCN)NC(=O)[C@@H](CC(C)C)NC(=O)[C@H](C)N(C)C(=O)[C@H](C(C)C)NC(=O)[C@H](Cc2ccc(-c3ccccc3)cc2)NC1=O [Example 2157] ({CH2CO}-Y(Carboxymethyl)Y(Carboxymethyl)DWL[Bip]V[NMeA][dL][Dab][Cha]V[Orn]CK[Aun]-OH; thioether N-14)	21 nM
CC(C)C[C@@H]1NC(=O)[C@H](Cc2c[nH]c3ccccc23)NC(=O)[C@H](CC(=O)O)NC(=O)[C@H](Cc2ccc(OCC(=O)O)cc2)NC(=O)[C@H](Cc2ccc(OCC(=O)O)cc2)NC(=O)CSC[C@@H](C(=O)NCCOCCOCC(=O)N[C@@H](CCN)C(=O)NCCCCCCCCCCC(=O)O)NC(=O)[C@H](CCCN)NC(=O)[C@H](C(C)C)NC(=O)[C@H](CC2CCCCC2)NC(=O)[C@H](CCN)NC(=O)[C@@H](CC(C)C)NC(=O)[C@H](C)N(C)C(=O)[C@H](C(C)C)NC(=O)[C@H](Cc2ccc(-c3ccccc3)cc2)NC1=O [Example 2158] ({CH2CO}-Y(Carboxymethyl)Y(Carboxymethyl)DWL[Bip]V[NMeA][dL][Dab][Cha]V[Orn]C[AEEA][Dab][Aun]-OH; thioether N-14)	20 nM
CC(C)C[C@@H]1NC(=O)[C@H](Cc2c[nH]c3ccccc23)NC(=O)[C@H](CC(=O)O)NC(=O)[C@H](Cc2ccc(C(=O)O)cc2)NC(=O)[C@H](Cc2ccc(OCC(=O)O)cc2)NC(=O)CSC[C@@H](C(=O)N[C@@H](CCCCN)C(=O)NCCCCCCCCCCC(=O)O)NC(=O)[C@H](CCCN)NC(=O)[C@H](C(C)C)NC(=O)[C@H](CC2CCCCC2)NC(=O)[C@H](CCN)NC(=O)[C@@H](CC(C)C)NC(=O)[C@H](C)N(C)C(=O)[C@H](C(C)C)NC(=O)[C@H](Cc2ccc(-c3ccccc3)cc2)NC1=O [Example 2159] ({CH2CO}-Y(Carboxymethyl)[Phe(4-COOH)]DWL[Bip]V[NMeA][dL][Dab][Cha]V[Orn]CK[Aun]-OH; thioether N-14)	17.8 nM
CC(C)C[C@@H]1NC(=O)[C@H](Cc2c[nH]c3ccccc23)NC(=O)[C@H](CC(=O)O)NC(=O)[C@H](Cc2ccc(O)cc2)NC(=O)[C@H](Cc2ccncc2)NC(=O)CSC[C@@H](C(=O)N[C@@H](CCCN)C(=O)NCCOCCOCC(=O)NCCCCCCCCCCC(=O)O)NC(=O)[C@H](CCCN)NC(=O)[C@H](C(C)C)NC(=O)[C@H](CC2CCCCC2)NC(=O)[C@H](CCN)NC(=O)[C@@H](CC(C)C)NC(=O)[C@H](C)N(C)C(=O)[C@H](C(C)C)NC(=O)[C@H](Cc2ccc(-c3ccccc3)cc2)NC1=O [Example 2161] ({CH2CO}-[4Pal]YDWL[Bip]V[NMeA][dL][Dab][Cha]V[Orn]C[Orn][AEEA][Aun]-OH; thioether N-14)	122 nM

Now those with a lower IC50, led by results:

IC50	SMILES
12.2 nM	CC(C)C[C@H]1NC(=O)[C@H](C)N(C)C(=O)[C@H](C(C)C)NC(=O)[C@H](Cc2ccc(-c3ccccc3)cc2)NC(=O)[C@H](C(C)C)NC(=O)[C@H](Cc2c[nH]c3ccccc23)NC(=O)[C@H](CC(=O)O)NC(=O)[C@H](Cc2ccc(OCC(=O)O)cc2)NC(=O)[C@H](CCCNC(=N)N)NC(=O)CSC[C@@H](C(=O)NCC(=O)NCCOCCOCC(=O)N[C@@H](CCCN)C(=O)NCCCCCCCCCCCC(=O)O)NC(=O)[C@H](CCCN)NC(=O)[C@H](C(C)C)NC(=O)[C@H](CC2CCCCC2)NC(=O)[C@H](CCN)NC1=O [Example 2160] ({CH2CO}-RY(Carboxymethyl)DWV[Bip]V[NMeA][dL][Dab][Cha]V[Orn]CG[AEEA][Orn][12Ado]-OH; thioether N-14)
11 nM	CC(C)C[C@@H]1NC(=O)[C@H](Cc2c[nH]c3ccccc23)NC(=O)[C@H](CC(=O)O)NC(=O)[C@H](Cc2ccc(OCC(=O)O)cc2)NC(=O)[C@H](Cc2ccc(OCC(=O)O)cc2)NC(=O)CSC[C@@H](C(=O)N[C@@H](CCCCN)C(=O)NCCOCCOCC(=O)NCCCCCCCCCCC(=O)O)NC(=O)[C@H](CN)NC(=O)[C@H](C(C)C)NC(=O)[C@H](CC2CCCCC2)NC(=O)[C@H](CCN)NC(=O)[C@@H](CC(C)C)NC(=O)[C@H](C)N(C)C(=O)[C@H](C(C)C)NC(=O)[C@H](Cc2ccc(-c3ccccc3)cc2)NC1=O [Example 2154] ({CH2CO}-Y(Carboxymethyl)Y(Carboxymethyl)DWL[Bip]V[NMeA][dL][Dab][Cha]V[Dap]CK[AEEA][Aun]-OH; thioether N-14)
6.6 nM	CC(C)C[C@@H]1NC(=O)[C@H](Cc2c[nH]c3ccccc23)NC(=O)[C@H](CC(=O)O)NC(=O)[C@H](Cc2ccc(C(=O)O)cc2)NC(=O)[C@H](Cc2ccc(OCC(=O)O)cc2)NC(=O)CSC[C@@H](C(=O)NCCOCCOCC(=O)N[C@@H](CCN)C(=O)NCCCCCCCCCCC(=O)O)NC(=O)[C@H](CCCCN)NC(=O)[C@H](C(C)C)NC(=O)[C@H](CC2CCCCC2)NC(=O)[C@H](CCN)NC(=O)[C@@H](CC(C)C)NC(=O)[C@H](C)N(C)C(=O)[C@H](C(C)C)NC(=O)[C@H](Cc2ccc(-c3ccccc3)cc2)NC1=O [Example 2155] ({CH2CO}-Y(Carboxymethyl)[Phe(4-COOH)]DWL[Bip]V[NMeA][dL][Dab][Cha]VKC[AEEA][Dab][Aun]-OH; thioether N-14)
